In patent publication US5498624A, “Selected pyrazolyl derivatives” (Monsanto Company, priority 1995, dated 1996):

Columns and labels:
[1] = tested on: Erysiphe graminis f. sp. tritici; experiment: Wheat Powdery Mildew Foliar Assay (WPM Prot); type: in vivo
Experimental: A) Pathogen/Inoculum Production--Leaf material infected with the wheat powdery mildew fungus, Erysiphe graminis f. sp. tritici, is maintained continuously on wheat seedlings, cv. Caldewell.
(B) Host Propagation, (C) Compound Preparation and (D) Compound Application follow as per Example 1.
(§1) (E) Inoculation/Incubation--Inoculation of the test plants takes place 24 hours after compound application. Inoculation is accomplished by gently shaking plants previously infected with the Erysiphe graminis f. sp. tritici fungus over the test plants. This process liberates a cloud of spores which effectively and uniformly fall onto the test plants. After inoculation the plants are returned to the environmental conditions under which they were grown.
(F) Evaluation and (G) Data follow as per Example 1. The percent protection values for the compounds of the present invention are as set out in the Table below.

Botrytis cinerea = experiment: Vine Grey Mold on Berries (VGM Prot); type: in vivo; conditions: grape berries, inoculated 24 hours after treatment
Experimental: A) Pathogen/Inoculum Production--The grey mold fungus, Botrytis cinerea, is cultured on PDA at 20° C. and 12 hours fluorescent light until the radial growth is slightly less than the plate diameter. A 1×10^6spore/ml suspension in sterile water (0.05% Tween®20) is made by dislodging spores in a flooded plate, filtering out mycelium, and adjusting the concentration.
B) Host Preparation--Thompson or Red Flame seedless table grapes from local grocery stores are used. Grapes are washed first in room temperature soapy water solution (a few drops of detergent per gallon), and then surfaced sterilized in 70% ethanol for one minute, followed by two rinses in sterile water. Berries are chosen which still have stem (pedicel) attached.
1) Experimental compounds--Each of the compounds of the present invention are applied at 200, 50, and 20 ppm. Formulation is generally in 40% acetone, 59.95% water, and 0.05% Tween®20. Replication is 6 berries per treatment. Compound is pipetted onto berries at 1.0 ml/treatment (6 berries) in a sterile petri plate. After drying, each berry is transferred to an individual well in a 12-well tissue culture plate. Formulated materials, such as commercial preparations are generally applied using the formulation only (no acetone or surfactant added).
2) Controls and Standards--Three technical grade commercial standards are used, usually at 200 and 50 ppm; benomyl, iprodione, and vinclozolin. The test controls include a uninoculated, formulation treated set as well as an inoculated, formulation treated set.
D) Inoculation/Incubation--Each berry is inoculated with 0.2 ml of spore suspension, using a sterile pipet. Incubation is in the 12-well culture plates at 20° C., 12 hour photoperiod.
E) Test Execution--One day protectant--Berries are inoculated as described 24 hours after chemical treatment.
F) Evaluation--The test is rated 7-10 days after inoculation. Percent surface area infected with disease is determined for each replicate using the values of 0, 1, 2, 5, 10, 15, 20, 25, etc. through 100%. Treatment means are calculated and percent disease control is determined by the formula "(control mean--treatment mean)*100/control mean". The untreated/inoculated control treatment is used for this calculation. The resultant percent protection or percent disease control values for the compounds of the present invention are as set out in the Table below.

Septoria nodorum = experiment: Wheat Glume Blotch (WGB) In Vitro; type: cell-based; design: key: 0: no inhibition of mycelial growth; 1: slight inhibition of mycelial growth; 2: moderate inhibition of mycelial growth; 3: strong inhibition of mycelial growth; conditions: 4-6 days at 25° C.
Experimental: A) Pathogen/Inoculum Production--The wheat glume blotch fungus, Septoria nodorum, is cultured on yeast/malt agar at 22° C. and 12 hours fluorescent light. Several sterile loops full of mature pycnidia produced on a 7 day old culture plates are added to 30 mls of 1/4 strength potato dextrose broth. After 15 minutes the suspension is stirred, and adjusted to a concentration of 3×10^5 spores/mi.
B) Compound Preparation and Test Execution--200 μl of 1/4 strength potato dextrose broth is placed in each well of a 96 well microtiter plate. […] The commercial standard used is flusilazole, at equivalent rates.
C) Inoculation/Incubation--50 μl of a 3×10^5 spores/ml suspension obtained using the method above is added to each well. The 96-well plate is incubated for 4-6 days at 25° C., 12 hours fluorescent light.
D) Evaluation--After incubation, each well is visually assessed for growth inhibition on the following 0-3 scale:
0=no inhibition of mycelial growth
1=slight inhibition of mycelial growth
2=moderate inhibition of mycelial growth
3=strong inhibition of mycelial growth

[2] = tested on: Erysiphe graminis f. sp. hordei; experiment: Barley Powdery Mildew Foliar Assay (BPM Prot); type: in vivo; conditions: inoculation 24 hours after application
Experimental: A) Pathogen/Inoculum Production--Leaf material infected with the barley powdery mildew fungus, Erysiphe graminis f. sp. hordei, is maintained continuously on barley seedlings, cv. Perry.
B) Host Propagation--Barley seedlings, cv. Perry, are grown to second leaf stage in a commercial soil preparation, "Metro Mix 200", amended with 100 gm/ft^3 slow release "Osmocote 14-14-14". A sufficient number of seeds are planted per pot (5 cm in diameter) in order to insure the production of 3-5 vigorous seedlings per pot. The plants are maintained in a growth chamber set at 21° C., 80% RH with a 12 hour photoperiod. Light intensity is set at 300 me/m^2/ sec.
C) Test Compound Preparation
1) Experimental compounds--Each or the compounds of the present invention are applied at 500, 100, and 20 ppm. Formulation is generally in […], 59.95% water, and 0.05% Tween 20. Four pots (with 3-5 plants/pot) at each rate are treated. The application volume is 8 ml per treatment. Formulated materials, such as commercially available products, are brought up to the appropriate treatment volume with water containing Tween®20,05% v/v.
2) Controls and standards--The commercial standards used are Corbel® (active ingredient fenpropimorph) and NUSTAR® (active ingredient flusilazole), both at the rate of 20 and/or 10 ppm. A set of control plants, treated with the formulation blank and inoculated, are also included.
D) Compound Application--Compound is sprayed onto the leaves of the plants (pots positioned on a rotating table) using a DeVilbiss Model 152 hand sprayer. Coverage of the first leaf is essential. After the plants have thoroughly dried they are returned to the growth room and randomized.
as §1, with “E)” for “(E)”, “hordeii” for “tritici”
F) Evaluation--The test is assessed 6-7 days after inoculation. Treatments are evaluated by visually estimating the percentage of the leaf area infected on the first leaf. Three ratings are made on each pot (replicate). Phytotoxicity and growth effects are also noted at this time.
G) Data--All replicate data is recorded as a percent disease value. Treatment means are calculated and percent disease control is determined by the formula: (control mean--treatment mean)*100/control mean. The inoculated control treatment mean is used for this calculation. The percent protection values for the compounds of the present invention are as set out in the Table below.

[3] = 20 ppm foliar protectant, * = averaged value
[4] = 100 ppm foliar protectant, * = averaged value

Structure (SMILES)	WPM Prot percent disease control [1, 3] [%]	WPM Prot percent disease control [1, 4] [%]	VGM Prot percent disease control (Botrytis cinerea; 20 ppm, * = averaged value) [%]	VGM Prot percent disease control (Botrytis cinerea; 50 ppm, * = averaged value) [%]	WGB In Vitro growth inhibition 0-3 scale (Septoria nodorum; 0.1 ppm)	WGB In Vitro growth inhibition 0-3 scale (Septoria nodorum; 0.5 ppm)	WGB In Vitro growth inhibition 0-3 scale (Septoria nodorum; 5.0 ppm)	BPM Prot percent disease control ([2]; 20 ppm foliar) [%]	BPM Prot percent disease control ([2]; 100 ppm foliar) [%]	WPM Prot percent disease control ([1]; 500 ppm foliar protectant) [%]	VGM Prot percent disease control (Botrytis cinerea; 200 ppm) [%]	BPM Prot percent disease control ([2]; 500 ppm foliar) [%]
C[C@H]1CCC[C@H](c2ccccc2NC(=O)c2cn(C)nc2C(F)F)C1 (relative stereo) [Number 3, 1H-pyrazole-4-carboxamide, 3-(difluoromethyl)-1-methyl-N-[2-(3-methylcyclohexyl)phenyl]-, trans-]	77	100	67	87	0	0	0	98	98			
Cn1cc(C(=O)Nc2ccccc2[C@H]2CC[C@H](C)CC2)c(C(F)(F)F)n1 [Number 4, 1H-pyrazole-4-carboxamide, 1-methyl-N-[2-(4-methylcyclohexyl)phenyl]-3-(trifluoromethyl)-, trans-]	65	91	41	67	1	1	2			100		
Cn1cc(C(=O)Nc2ccccc2[C@@H]2CCC[C@@H](C(F)(F)F)C2)c(C(F)F)n1 (relative stereo) [Number 6]					0	0	1			98		
CC[C@H]1CC[C@@H](c2ccccc2NC(=O)c2cn(C)nc2C(F)F)CC1 [Number 1, 1H-pyrazole-4-carboxamide, 3-(difluoromethyl)-N-[2-(4-ethylcyclohexyl)phenyl]-1-methyl-, cis-]				93	0	3	3				99	88
C[C@@H]1CCC[C@H](c2ccccc2NC(=O)c2cn(C)nc2C(F)F)C1 (relative stereo) [Number 2, 1H-pyrazole-4-carboxamide, 3-(difluoromethyl)-1-methyl-N-[2-(-3-methylcyclohexyl)phenyl]-, cis-]	44	65	90	93	0	1	2	90	96		99	85
Cn1cc(C(=O)Nc2ccccc2C2CCC(C)(C)CC2)c(C(F)F)n1 [Number 5, 1H-pyrazole-4-carboxamide, 3-(difluoromethyl)-N-(2-(4,4-dimethylcyclohexyl)phenyl]-1-methyl-]	52	79			0	2	2			92		
